Each structure is given as a SMILES string.

In the experiment the target is T1, Human FXIIa (Homo sapiens, UniProt P00748).
T1 construct: active coagulation factor XII (FXIIa); purchased Enzyme Research Labs
T1 sequence (P00748 373-615 limits assumed): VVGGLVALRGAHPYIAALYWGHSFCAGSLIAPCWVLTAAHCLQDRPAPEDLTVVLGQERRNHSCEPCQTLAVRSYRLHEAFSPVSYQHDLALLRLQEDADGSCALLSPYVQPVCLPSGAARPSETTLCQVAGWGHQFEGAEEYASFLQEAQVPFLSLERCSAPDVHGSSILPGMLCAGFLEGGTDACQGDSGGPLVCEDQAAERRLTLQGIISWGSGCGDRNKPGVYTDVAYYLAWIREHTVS
T1 sequence (P00748 20-372 partner limits assumed): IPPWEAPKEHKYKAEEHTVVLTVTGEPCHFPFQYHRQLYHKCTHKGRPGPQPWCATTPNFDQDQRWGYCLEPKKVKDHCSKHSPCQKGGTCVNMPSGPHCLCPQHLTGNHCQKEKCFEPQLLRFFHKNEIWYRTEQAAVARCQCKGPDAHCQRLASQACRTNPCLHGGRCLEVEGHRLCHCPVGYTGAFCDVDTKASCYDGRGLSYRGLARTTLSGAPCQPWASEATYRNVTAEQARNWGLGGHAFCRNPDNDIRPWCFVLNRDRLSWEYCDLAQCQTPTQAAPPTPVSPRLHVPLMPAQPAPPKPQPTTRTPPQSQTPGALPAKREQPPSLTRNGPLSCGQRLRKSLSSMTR
The experiment is described as follows: Factor XIIa (FXIIa) inhibitory activity, chromogenic substrate assay. Conditions: Human FXIIa 12.5 nM, Pefachrome XIIa 400 μM, 10 min preincubation. In kind it is biochemical. The protocol: Factor XIIa (FXIIa) Inhibitory Activity:
In a 96-well clear bottom plate, 80 μl of assay buffer was added to each well. Assay buffer consists of 0.5× Hank's Balanced Salt Solution (Invitrogen), buffered with 25 mM HEPES pH 7.4 (Invitrogen) and 0.5× Tris-buffered saline with Tween-20 0.05% (Santa Cruz Biotechnology). Test compounds were first dissolved in DMSO (Sigma) and then 4 μl were added to test wells containing assay buffer. Serial dilutions using an automated multi-channel pipette were used to generate a concentration range of approximately 1-100 μM. […] 80 μl of this enzyme solution was added to the assay wells. The enzyme/compound mixtures were incubated for 10 minutes at room temperature. Chromogenic substrate (Pefachrome XIIa; Enzyme Research Labs) was added to assay wells at a final concentration of 400 μM. The assay plate was spun for 1 minute at 1500 g and then read at 37° C. in a SpectraMax M2 plate reader (λ=405 nm). Activity was quantified as the rate of change in absorbance, which corresponds to the rate of substrate cleavage.

As a reminder, the IC50 is the point on the concentration scale where inhibition reaches its midpoint. A low value points to higher potency. In the case of `Nc1c2c(nn1C(=O)C1CCCc3[nH]c(Cl)cc31)CCCC2` (single isomer, unassigned) [Example 107, (R*)-(3-amino-4,5,6,7-tetrahydro-2H-indazol-2-yl)(2-chloro-4,5,6,7-tetrahydro-1H-indol-4-yl)methanone], the IC50 was found to be 8 µM. Then `CCc1cc2c(C(=O)n3nc(N)c4c3CCCC4)ccnc2[nH]1` [Example 114, (3-amino-4,5,6,7-tetrahydro-1H-indazol-1-yl)(2-ethyl-1H-pyrrolo[2,3-b]pyridin-4-yl)methanone], with above 100 µM. For the compound `Cc1cccc2c1NCCC2C(=O)n1nc2c(c1N)C=CCC2` (single isomer, unassigned) [Example 195, (S*)-(3-amino-6,7-dihydroindazol-2-yl)(8-methyl-1,2,3,4-tetrahydroquinolin-4-yl)methanone], the IC50 came to 0.04 µM. Then `Cc1cc2c(C(=O)n3nc4c(c3N)CCCC4)cccc2n1C(C)C` [Example 49, (3-amino-4,5,6,7-tetrahydroindazol-2-yl)(1-isopropyl-2-methyl-1H-indol-4-yl)methanone], with 0.02 µM; and `COc1ccc2c(c1)NCCC2C(=O)n1nc2c(c1N)CCCC2` (centres unmarked) [Example 110, (3-amino-4,5,6,7-tetrahydroindazol-2-yl)(7-methoxy-1,2,3,4-tetrahydroquinolin-4-yl)methanone], with 0.25 µM.

`Cc1ccc2c(c1)NCCC2C(=O)n1nc2c(c1N)CCCC2` (centres unmarked) [Example 101, (3-amino-4,5,6,7-tetrahydroindazol-2-yl)(7-methyl-1,2,3,4-tetrahydroquinolin-4-yl)methanone]: the IC50 is 0.9 µM. Against the preceding compound, the IC50 is about 3.6-fold higher. Then `Cn1ccc2c1CCCC2C(=O)n1nc2c(c1N)CCCC2` (single isomer, unassigned) [Example 97, (S*)-(3-amino-4,5,6,7-tetrahydroindazol-2-yl)(1-methyl-4,5,6,7-tetrahydro-1H-indol-4-yl)methanone], with 0.4 µM. Then `Cc1cccc2c1NCC[C@H]2C(=O)n1nc(N)c2c1C[C@H](O)CC2` (single isomer, unassigned) [Example 202, ((6R*)-3-amino-6-hydroxy-4,5,6,7-tetrahydroindazol-1-yl)((4R*)-8-methyl-1,2,3,4-tetrahydroquinolin-4-yl)methanone], with above 175 µM.

The compound `Nc1nn(C(=O)C2CCNc3c(Cl)cccc32)c2c1CC(O)CC2` (single isomer, unassigned) [Example 205, ((5R*)-3-amino-5-hydroxy-4,5,6,7-tetrahydroindazol-1-yl)(8-chloro-1,2,3,4-tetrahydroquinolin-4-yl)methanone] displayed an IC50 above 100 µM.

Consider `CCc1cc2c([nH]1)CCCC2C(=O)n1nc2c(c1N)CCCC2` (centres unmarked) [Example 82, (3-amino-4,5,6,7-tetrahydroindazol-2-yl)(2-ethyl-4,5,6,7-tetrahydro-1H-indol-4-yl)methanone], for which the IC50 turned out to be 0.04 µM.

`Cc1cc2c(C(=O)n3cc4c(n3)CCCC4)cccc2[nH]1` [Example 159]: the IC50 was 0.15 µM. To `Cc1cccc2c1NCC[C@@H]2C(=O)n1nc(N)c2c1C[C@H](O)CC2` (single isomer, unassigned) [Example 201, ((6R*)-3-amino-6-hydroxy-4,5,6,7-tetrahydroindazol-1-yl)((4S*)-8-methyl-1,2,3,4-tetrahydroquinolin-4-yl)methanone] belongs above 150 µM; to `Nc1c2c(nn1C(=O)[C@@H]1CCNc3ccc(F)cc31)CC[C@@H](O)C2` (single isomer, unassigned) [Example 130, ((5R*)-3-amino-5-hydroxy-4,5,6,7-tetrahydro-2H-indazol-2-yl)(4(R*)-6-fluoro-1,2,3,4-tetrahydroquinolin-4-yl)methanone], 45 µM. Then `Nc1nn(C(=O)[C@H]2CCNc3ccc(Cl)cc32)c2c1C[C@H](O)CC2` (single isomer, unassigned) [Example 150, ((5R*)-3-amino-5-hydroxy-4,5,6,7-tetrahydroindazol-1-yl)((4S*)-6-chloro-1,2,3,4-tetrahydroquinolin-4-yl)methanone], with 23 µM.

The values are drawn from patent US10538512B2, “Aminoacylindazole immunomodulators for treatment of autoimmune diseases” (The Rockefeller University, priority 2016, dated 2020).
